Laboratory results reported in paper PMC6588435 (Cell chemical biology, 2019).
Converted amounts (≈) assume the structure as drawn.

What was measured:
[1] = system: PAS-resistant Mtb mutant folC (E153G); format: cell-based, Mycobacterium tuberculosis
Mtb = conditions: rising up to; ref Zhao et al., 2014; cited from earlier work
INCA-R Mtb strains = assay: microbe, parasite or virus in culture; format: cell-based, Mycobacterium tuberculosis
[2] = system: PAS-resistant Mtb mutant folC (I43T); format: cell-based, Mycobacterium tuberculosis
[3] = system: PAS-resistant Mtb mutant thyX (−16 C->T); format: cell-based, Mycobacterium tuberculosis

Nc1ccc(C(=O)O)c(O)c1 [PAS, para-aminosalicylic acid]
MIC, folC (E153G) [1]: 32 µg/mL (≈ 209 µM) | MIC values of PAS-resistant mutants (Mtb): up to 8 μg/mL | elevation of MIC in INCA-R strains (loss of potency) (INCA-R Mtb strains): 32 fold | MIC (INCA-R Mtb strains; Mycobacterium tuberculosis, read-out: MIC of INCA-R strains): 16 µg/mL | MIC, folC (I43T) [2]: 32 µg/mL (≈ 209 µM) | MIC, thyX (−16 C->T) [3]: 16 µg/mL (≈ 104 µM)
